Results on twelve compounds are retold here after article PMC6270614 (Molecules, 2013).

Series [1] has as its target human cannabinoid CB1 receptor (Homo sapiens, UniProt P21554). Put plainly: CB1 receptor radioligand ([3H]CP-55,940) displacement binding assay. To be noted: for inhibition at 1 µM: read-out: displacement of [3H]CP-55,940 in the preliminary screen (printed in the CB1 Ki column). As to the method: In all cases, Ki values were calculated by applying the Cheng-Prusoff equation [34] to the IC50 values (obtained by GraphPad, GraphPad Software, Inc., La Jolla, CA, USA) for the displacement of the bound radioligand by increasing concentrations of the test compounds (after three separate experiments for each compound).
A general note: Loss of bound radioactivity is the signal in a displacement assay; it reports binding, not function.

The mark [2] stands for this setting: CB1 (Ki, nM), displacement of 0.5 nM [3H]CP-55,940, means ± SEM, n = 3, Cheng-Prusoff from IC50.
Where [3] appears, read: Experimental activity (pIC50, M), CoMFA training and test set input.
[4] abbreviates: IC50 (CB1 displacement), displacement of [3H]CP-55,940.
Where [5] appears, read: CoMFA training and test set input, read-out: Experimental activity (pIC50) (converted).

Each structure is given as a SMILES string. Where two headings read alike, the source gives them in different places.

Sequence of human cannabinoid CB1 receptor (P21554 whole entry): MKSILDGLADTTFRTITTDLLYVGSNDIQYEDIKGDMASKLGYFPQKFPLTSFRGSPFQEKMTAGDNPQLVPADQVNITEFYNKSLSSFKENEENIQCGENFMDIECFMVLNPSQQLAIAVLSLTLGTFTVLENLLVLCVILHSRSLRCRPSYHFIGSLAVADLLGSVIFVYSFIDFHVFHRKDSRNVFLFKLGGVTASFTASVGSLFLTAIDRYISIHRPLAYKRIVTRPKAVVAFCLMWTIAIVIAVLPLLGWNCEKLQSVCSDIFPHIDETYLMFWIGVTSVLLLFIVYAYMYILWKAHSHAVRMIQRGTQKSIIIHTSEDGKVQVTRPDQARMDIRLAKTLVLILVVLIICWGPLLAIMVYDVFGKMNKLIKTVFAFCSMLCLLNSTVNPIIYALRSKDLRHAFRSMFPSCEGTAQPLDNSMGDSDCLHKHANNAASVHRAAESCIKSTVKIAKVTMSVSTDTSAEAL

What is called melting point is the temperature of the solid-liquid transition. As usually defined, the Ki is the equilibrium dissociation constant of an inhibitor or competing ligand from its target. `Fc1ccc2c(c1)nc(-c1cccnc1)n2Cc1cccc2ccccc12` [Compound 38, 5-Fluoro-1-(naphthalen-1-ylmethyl)-2-(pyridin-3-yl)-1H-benzo[d]imidazole] yielded a melting point of 163.4 to 163.9 °C. Moreover, the affinity in series [1] (setting [2]), expressed as Ki, was 98.2 ± 33.5 nM. For the same compound, in series [1] (setting [3]), the IC50 was 180 nM.
For the compound `Fc1ccc2nc(-c3cccnc3)n(Cc3cccc4ccccc34)c2c1` [Compound 39, 6-Fluoro-1-(naphthalen-1-ylmethyl)-2-(pyridin-3-yl)-1H-benzo[d]imidazole], the melting point fell in the range of 156.1 to 157 °C. For the same compound, the Ki in series [1] (setting [2]) is less than 200 nM. Also, the IC50 in series [1] (setting [3]) was 0.979 nM. The IC50 in series [1] (setting [4]) is less than 10 nM. For the same compound, the inhibition constant Ki in series [1] (read-out: CB1 (Ki), displacement of 0.5 nM [3H]CP-55,940, means ± SEM, n = 3, Cheng-Prusoff from IC50) stood at 0.53 ± 0.9 nM.
On to `Cc1cc2nc(-c3cccnc3)n(Cc3cccc4ccccc34)c2cc1C` [Compound 40, 5,6-Dimethyl-1-(naphthalen-1-ylmethyl)-2-(pyridin-3-yl)-1H-benzo[d]imidazole], for which the melting point lay within 141.4 to 142.1 °C. Also, the inhibition at 1 µM in series [1] was less than 50%.
In turn, `c1ccc2c(Cn3c(-c4ccncc4)nc4ccccc43)cccc2c1` [Compound 41, 1-(Naphthalen-1-ylmethyl)-2-(pyridin-4-yl)-1H-benzo[d]imidazole] showed a melting point of 163.3 to 163.8 °C. For the same compound, the IC50 in series [1] (setting [5]) was 274 nM. In addition, in series [1] (read-out: CB1 (Ki)), the Ki was 149 ± 1.9 nM.
In the case of `Fc1ccc2c(c1)nc(-c1ccncc1)n2Cc1cccc2ccccc12` [Compound 42, 5-Fluoro-1-(naphthalen-1-ylmethyl)-2-(pyridin-4-yl)-1H-benzo[d]imidazole], the melting point is 151.5 to 152.5 °C. The inhibition at 1 µM in series [1] was less than 50%.
As for `Fc1ccc2nc(-c3ccncc3)n(Cc3cccc4ccccc34)c2c1` [Compound 43, 6-Fluoro-1-(naphthalen-1-ylmethyl)-2-(pyridin-4-yl)-1H-benzo[d]imidazole], the melting point lay within 167.4 to 168.1 °C. Moreover, the IC50 in series [1] (setting [5]) was 1120 nM. For the same compound, the Ki in series [1] (read-out: CB1 (Ki)) stood at 614 ± 54.7 nM.
`Cc1cc2nc(-c3ccncc3)n(Cc3cccc4ccccc34)c2cc1C` [Compound 44, 5,6-Dimethyl-1-(naphthalen-1-ylmethyl)-2-(pyridin-4-yl)-1H-benzo[d]imidazole]: the melting point was 156.8 to 157.6 °C. The compound further displayed a Ki in series [1] (setting [2]) of 4.84 ± 2 nM. This compound also gave an IC50 in series [1] (setting [3]) of 8.87 nM. Moreover, in series [1] (setting [4]), the IC50 is less than 10 nM.
The compound `c1ccc(-c2nc3ccccc3n2Cc2ccc3ccccc3c2)nc1` [Compound 45, 1-(Naphthalen-2-ylmethyl)-2-(pyridin-2-yl)-1H-benzo[d]imidazole] displayed a melting point of 150.7 to 151.8 °C. In addition, the Ki in series [1] (setting [2]) was found to be 31.8 ± 12 nM. In addition, the IC50 in series [1] (setting [3]) is 58.3 nM.
Regarding `Fc1ccc2c(c1)nc(-c1ccccn1)n2Cc1ccc2ccccc2c1` [Compound 46, 5-Fluoro-1-(naphthalen-2-ylmethyl)-2-(pyridin-2-yl)-1H-benzo[d]imidazole], the melting point is 165.7 to 166.4 °C. The inhibition at 1 µM in series [1] is less than 50%.
As to `Fc1ccc2nc(-c3ccccn3)n(Cc3ccc4ccccc4c3)c2c1` [Compound 47, 6-Fluoro-1-(naphthalen-2-ylmethyl)-2-(pyridin-2-yl)-1H-benzo[d]imidazole], the melting point was in the range of 170.5 to 171.3 °C. The inhibition at 1 µM in series [1] is less than 50%.
As for `c1cncc(-c2nc3ccccc3n2Cc2ccc3ccccc3c2)c1` [Compound 49, 1-(Naphthalen-2-ylmethyl)-2-(pyridin-3-yl)-1H-benzo[d]imidazole], the melting point is 146.3 to 147 °C. In addition, the IC50 in series [1] (setting [5]) was 3380 nM. Also, in series [1] (read-out: CB1 (Ki)), the Ki is 1840 ± 79.8 nM.
In the same order, the values of `Fc1ccc2c(c1)nc(-c1cccnc1)n2Cc1ccc2ccccc2c1` [Compound 50, 5-Fluoro-1-(naphthalen-2-ylmethyl)-2-(pyridin-3-yl)-1H-benzo[d]imidazole] are 175.7 to 176.8 °C, 600 nM and 327 ± 60 nM.
